Experimental data reported in ChEMBL document CHEMBL4649986, “Chemical probes and inhibitors of bromodomains outside the BET family” (Medchemcomm, 2016).

Key:
[1] = target: Bromodomain adjacent to zinc finger domain protein 2B (Homo sapiens) (UniProt Q9UIF8); details: Compound concentration 10.0 uM, Protein concentration 2.0 uM
[2] = target: Bromodomain-containing protein 1 (Homo sapiens) (UniProt O95696); details: Compound concentration 10.0 uM, Protein concentration 2.0 uM
[3] = target: Bromodomain adjacent to zinc finger domain protein 2A (Homo sapiens) (UniProt Q9UIF9); details: Compound concentration 10.0 uM, Protein concentration 2.0 uM
[4] = target: Bromodomain testis-specific protein (Homo sapiens) (UniProt Q58F21); details: Compound concentration 10.0 uM, Protein concentration 2.0 uM
[5] = target: Transcription initiation factor TFIID subunit 1 (Homo sapiens) (UniProt P21675); details: Compound concentration 10.0 uM, Protein concentration 2.0 uM
[6] = target: T1, Nucleosome-remodeling factor subunit BPTF (Homo sapiens, UniProt Q12830); details: Compound concentration 10.0 uM, Protein concentration 2.0 uM
[7] = target: PH-interacting protein (Homo sapiens) (UniProt Q8WWQ0); details: Compound concentration 10.0 uM, Protein concentration 2.0 uM
[8] = target: Protein polybromo-1 (Homo sapiens) (UniProt Q86U86); details: Compound concentration 10.0 uM, Protein concentration 2.0 uM
Protein polybromo-1 (Homo sapiens), sequence (Q86U86 whole entry): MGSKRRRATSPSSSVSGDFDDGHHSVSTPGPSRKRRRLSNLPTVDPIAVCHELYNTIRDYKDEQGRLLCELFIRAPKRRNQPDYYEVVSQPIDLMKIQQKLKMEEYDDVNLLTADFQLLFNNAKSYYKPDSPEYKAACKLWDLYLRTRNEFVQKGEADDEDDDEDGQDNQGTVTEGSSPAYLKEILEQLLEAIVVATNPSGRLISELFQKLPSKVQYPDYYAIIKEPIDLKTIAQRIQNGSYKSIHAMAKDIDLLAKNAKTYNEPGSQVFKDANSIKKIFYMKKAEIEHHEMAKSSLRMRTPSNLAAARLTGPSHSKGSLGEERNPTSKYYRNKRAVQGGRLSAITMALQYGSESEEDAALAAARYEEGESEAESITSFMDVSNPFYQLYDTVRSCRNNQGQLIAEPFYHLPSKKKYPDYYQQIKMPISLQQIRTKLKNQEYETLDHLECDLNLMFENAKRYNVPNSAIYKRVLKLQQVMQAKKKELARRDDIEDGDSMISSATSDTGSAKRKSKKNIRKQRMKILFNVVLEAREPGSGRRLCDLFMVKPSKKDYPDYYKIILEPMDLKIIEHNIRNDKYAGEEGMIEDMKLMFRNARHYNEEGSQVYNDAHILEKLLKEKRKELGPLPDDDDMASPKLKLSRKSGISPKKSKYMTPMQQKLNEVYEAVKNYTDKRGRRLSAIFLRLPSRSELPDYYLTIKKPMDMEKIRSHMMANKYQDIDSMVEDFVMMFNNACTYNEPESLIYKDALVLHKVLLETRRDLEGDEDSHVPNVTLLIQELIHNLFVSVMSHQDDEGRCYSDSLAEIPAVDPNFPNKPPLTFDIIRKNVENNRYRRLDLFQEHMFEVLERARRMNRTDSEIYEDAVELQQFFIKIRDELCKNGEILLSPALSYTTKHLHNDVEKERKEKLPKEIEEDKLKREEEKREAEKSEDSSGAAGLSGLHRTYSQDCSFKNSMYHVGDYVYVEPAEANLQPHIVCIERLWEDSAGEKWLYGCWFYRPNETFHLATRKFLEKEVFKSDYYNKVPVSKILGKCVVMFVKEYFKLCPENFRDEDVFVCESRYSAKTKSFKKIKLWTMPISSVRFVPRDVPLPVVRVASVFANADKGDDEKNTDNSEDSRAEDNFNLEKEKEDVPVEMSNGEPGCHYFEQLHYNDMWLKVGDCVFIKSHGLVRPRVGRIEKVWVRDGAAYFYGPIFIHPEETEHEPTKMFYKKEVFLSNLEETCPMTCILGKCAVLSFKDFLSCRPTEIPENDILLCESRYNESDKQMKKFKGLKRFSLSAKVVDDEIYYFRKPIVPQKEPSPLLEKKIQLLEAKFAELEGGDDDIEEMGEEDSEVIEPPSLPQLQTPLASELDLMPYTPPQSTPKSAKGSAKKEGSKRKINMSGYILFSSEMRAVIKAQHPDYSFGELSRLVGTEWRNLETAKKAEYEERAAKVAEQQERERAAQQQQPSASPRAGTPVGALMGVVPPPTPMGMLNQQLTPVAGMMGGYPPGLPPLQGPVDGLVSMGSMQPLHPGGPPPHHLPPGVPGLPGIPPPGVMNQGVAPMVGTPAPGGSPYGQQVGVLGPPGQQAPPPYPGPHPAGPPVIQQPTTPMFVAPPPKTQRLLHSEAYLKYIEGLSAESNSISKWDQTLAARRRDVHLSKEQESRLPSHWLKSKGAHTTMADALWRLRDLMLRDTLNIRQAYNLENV

[9] = target: Histone-lysine N-methyltransferase 2A (Homo sapiens) (UniProt Q03164); details: Compound concentration 10.0 uM, Protein concentration 2.0 uM
[10] = target: T2, Chromatin remodeling regulator CECR2 (Homo sapiens, UniProt Q9BXF3); assay: Alphascreen assay. Binding to CECR2A (domain start/stop: P420-H538) by alphascreen assay
Target sequence in this assay (Q9BXF3 whole entry): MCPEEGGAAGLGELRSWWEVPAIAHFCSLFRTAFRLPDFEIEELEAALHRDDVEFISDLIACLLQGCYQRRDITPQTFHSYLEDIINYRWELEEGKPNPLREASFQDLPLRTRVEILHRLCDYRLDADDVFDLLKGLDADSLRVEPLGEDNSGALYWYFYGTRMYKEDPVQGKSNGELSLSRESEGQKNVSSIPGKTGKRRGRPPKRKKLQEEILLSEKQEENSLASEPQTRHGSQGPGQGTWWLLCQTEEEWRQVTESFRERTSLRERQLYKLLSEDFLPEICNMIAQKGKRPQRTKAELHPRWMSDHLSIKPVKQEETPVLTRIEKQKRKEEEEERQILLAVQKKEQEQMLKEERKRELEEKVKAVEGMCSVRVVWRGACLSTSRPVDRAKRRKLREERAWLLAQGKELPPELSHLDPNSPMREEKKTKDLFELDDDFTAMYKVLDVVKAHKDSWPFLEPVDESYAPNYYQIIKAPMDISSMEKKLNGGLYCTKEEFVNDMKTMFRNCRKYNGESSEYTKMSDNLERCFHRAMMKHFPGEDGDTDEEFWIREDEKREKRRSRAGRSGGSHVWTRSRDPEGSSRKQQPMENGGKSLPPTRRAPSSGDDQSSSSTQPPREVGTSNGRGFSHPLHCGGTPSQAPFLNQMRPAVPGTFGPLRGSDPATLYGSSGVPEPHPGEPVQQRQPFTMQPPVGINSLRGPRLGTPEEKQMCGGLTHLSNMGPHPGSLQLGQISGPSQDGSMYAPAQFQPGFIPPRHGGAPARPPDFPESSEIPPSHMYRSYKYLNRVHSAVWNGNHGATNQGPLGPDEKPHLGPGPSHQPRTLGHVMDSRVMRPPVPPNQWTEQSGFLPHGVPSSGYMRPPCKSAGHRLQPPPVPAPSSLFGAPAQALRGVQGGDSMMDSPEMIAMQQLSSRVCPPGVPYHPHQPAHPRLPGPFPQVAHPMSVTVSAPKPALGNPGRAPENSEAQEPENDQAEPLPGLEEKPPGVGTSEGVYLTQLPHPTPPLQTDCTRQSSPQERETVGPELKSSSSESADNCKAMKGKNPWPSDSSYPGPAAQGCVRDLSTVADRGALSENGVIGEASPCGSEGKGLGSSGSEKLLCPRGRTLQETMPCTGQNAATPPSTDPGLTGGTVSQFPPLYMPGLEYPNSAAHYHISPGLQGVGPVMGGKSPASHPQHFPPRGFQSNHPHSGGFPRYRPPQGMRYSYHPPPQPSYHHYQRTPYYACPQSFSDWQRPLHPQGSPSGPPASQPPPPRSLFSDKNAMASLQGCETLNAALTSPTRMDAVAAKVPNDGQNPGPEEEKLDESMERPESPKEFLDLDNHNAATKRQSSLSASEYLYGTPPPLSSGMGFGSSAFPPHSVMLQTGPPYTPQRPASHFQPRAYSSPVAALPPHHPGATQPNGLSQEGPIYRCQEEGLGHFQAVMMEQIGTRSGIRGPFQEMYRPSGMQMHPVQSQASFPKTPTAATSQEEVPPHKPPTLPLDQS

[11] = target: Histone-lysine N-methyltransferase ASH1L (Homo sapiens) (UniProt Q9NR48); details: Compound concentration 10.0 uM, Protein concentration 2.0 uM
[12] = target: Protein polybromo-1 (Homo sapiens) (UniProt Q86U86); details: Compound concentration 10.0 uM, Protein concentration 2.0 uM; remark: listed apart in the source
[13] = target: CREB-binding protein (Homo sapiens) (UniProt Q92793); details: Compound concentration 10.0 uM, Protein concentration 2.0 uM
[14] = target: Protein polybromo-1 (Homo sapiens) (UniProt Q86U86); details: Compound concentration 10.0 uM, Protein concentration 2.0 uM; remark: listed apart in the source
[15] = target: Bromodomain-containing protein 7 (Homo sapiens) (UniProt Q9NPI1); details: Compound concentration 10.0 uM, Protein concentration 2.0 uM
[16] = target: Transcription intermediary factor 1-alpha (Homo sapiens) (UniProt O15164); details: Compound concentration 10.0 uM, Protein concentration 2.0 uM
[17] = target: Histone acetyltransferase KAT2A (Homo sapiens) (UniProt Q92830); details: Compound concentration 10.0 uM, Protein concentration 2.0 uM
[18] = target: Bromodomain-containing protein 2 (Homo sapiens) (UniProt P25440); details: Compound concentration 10.0 uM, Protein concentration 2.0 uM
Peregrin (Homo sapiens) [19] = target: Peregrin (Homo sapiens) (UniProt P55201); details: Compound concentration 10.0 uM, Protein concentration 2.0 uM
Peregrin (Homo sapiens), sequence (P55201 whole entry): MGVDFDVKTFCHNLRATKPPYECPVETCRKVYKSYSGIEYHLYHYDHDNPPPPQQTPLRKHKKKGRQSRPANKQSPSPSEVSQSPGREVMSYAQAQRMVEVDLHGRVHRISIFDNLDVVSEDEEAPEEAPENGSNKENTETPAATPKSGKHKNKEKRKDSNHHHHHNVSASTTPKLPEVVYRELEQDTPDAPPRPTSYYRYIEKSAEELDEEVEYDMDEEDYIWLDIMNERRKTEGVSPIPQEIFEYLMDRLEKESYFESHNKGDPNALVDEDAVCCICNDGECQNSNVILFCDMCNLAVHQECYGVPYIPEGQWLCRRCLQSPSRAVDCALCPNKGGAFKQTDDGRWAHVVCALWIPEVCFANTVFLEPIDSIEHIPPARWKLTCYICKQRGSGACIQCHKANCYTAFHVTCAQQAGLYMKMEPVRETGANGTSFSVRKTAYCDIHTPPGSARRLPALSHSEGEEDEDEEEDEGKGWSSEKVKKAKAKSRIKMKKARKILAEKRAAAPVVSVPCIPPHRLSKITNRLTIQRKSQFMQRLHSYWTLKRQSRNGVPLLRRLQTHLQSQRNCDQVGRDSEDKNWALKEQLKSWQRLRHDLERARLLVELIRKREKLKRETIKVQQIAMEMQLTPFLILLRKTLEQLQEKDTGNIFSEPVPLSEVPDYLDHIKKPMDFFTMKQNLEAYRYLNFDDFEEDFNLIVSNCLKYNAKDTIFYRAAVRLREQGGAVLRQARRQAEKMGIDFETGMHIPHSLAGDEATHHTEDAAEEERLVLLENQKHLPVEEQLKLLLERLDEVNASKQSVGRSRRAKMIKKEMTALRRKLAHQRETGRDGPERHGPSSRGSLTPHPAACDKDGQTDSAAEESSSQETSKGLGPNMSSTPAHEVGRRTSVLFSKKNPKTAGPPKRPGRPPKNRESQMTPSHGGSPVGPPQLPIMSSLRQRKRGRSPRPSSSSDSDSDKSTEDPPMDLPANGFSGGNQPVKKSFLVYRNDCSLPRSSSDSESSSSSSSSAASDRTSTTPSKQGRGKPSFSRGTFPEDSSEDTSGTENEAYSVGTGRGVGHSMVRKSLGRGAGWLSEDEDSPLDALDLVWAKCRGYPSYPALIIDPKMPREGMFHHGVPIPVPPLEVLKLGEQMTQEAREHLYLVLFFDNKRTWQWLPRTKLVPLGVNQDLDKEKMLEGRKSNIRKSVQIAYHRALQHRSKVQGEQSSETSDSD

Peregrin = Peregrin (Homo sapiens, UniProt P55201); assay: Alphascreen assay. Binding to BRPF1B (domain start/stop: M626-G740) by alphascreen assay
[20] = target: Histone acetyltransferase p300 (Homo sapiens) (UniProt Q09472); details: Compound concentration 10.0 uM, Protein concentration 2.0 uM
[21] = target: Protein polybromo-1 (Homo sapiens) (UniProt Q86U86); details: Compound concentration 10.0 uM, Protein concentration 2.0 uM; remark: listed apart in the source
[22] = target: Bromodomain and PHD finger-containing protein 3 (Homo sapiens) (UniProt Q9ULD4); details: Compound concentration 10.0 uM, Protein concentration 2.0 uM
[23] = target: ATPase family AAA domain-containing protein 2B (Homo sapiens) (UniProt Q9ULI0); details: Compound concentration 10.0 uM, Protein concentration 2.0 uM
[24] = target: Bromodomain testis-specific protein (Homo sapiens) (UniProt Q58F21); details: Compound concentration 10.0 uM, Protein concentration 2.0 uM; remark: listed apart in the source
[25] = target: Bromodomain-containing protein 2 (Homo sapiens) (UniProt P25440); details: Compound concentration 10.0 uM, Protein concentration 2.0 uM; remark: listed apart in the source
[26] = target: Transcription initiation factor TFIID subunit 1 (Homo sapiens) (UniProt P21675); details: Compound concentration 10.0 uM, Protein concentration 2.0 uM; remark: listed apart in the source
[27] = target: Transcription initiation factor TFIID subunit 1-like (Homo sapiens) (UniProt Q8IZX4); details: Compound concentration 10.0 uM, Protein concentration 2.0 uM
Peregrin (Homo sapiens) [28] = target: Peregrin (Homo sapiens) (UniProt P55201); details: Compound concentration 10.0 uM, Protein concentration 2.0 uM; remark: listed apart in the source
[29] = target: SWI/SNF-related matrix-associated actin-dependent regulator of chromatin subfamily A member 2 (Homo sapiens) (UniProt P51531); details: Compound concentration 10.0 uM, Protein concentration 2.0 uM
[30] = target: Histone acetyltransferase KAT2B (Homo sapiens) (UniProt Q92831); details: Compound concentration 10.0 uM, Protein concentration 2.0 uM
[31] = target: Protein polybromo-1 (Homo sapiens) (UniProt Q86U86); details: Compound concentration 10.0 uM, Protein concentration 2.0 uM; remark: listed apart in the source
[32] = target: Nuclear body protein SP140 (Homo sapiens) (UniProt Q13342); details: Compound concentration 10.0 uM, Protein concentration 2.0 uM
[33] = target: SWI/SNF-related matrix-associated actin-dependent regulator of chromatin subfamily A member 4 (Homo sapiens) (UniProt P51532); details: Compound concentration 10.0 uM, Protein concentration 2.0 uM
[34] = target: Bromodomain adjacent to zinc finger domain protein 1A (Homo sapiens) (UniProt Q9NRL2); details: Compound concentration 10.0 uM, Protein concentration 2.0 uM
[35] = target: Bromodomain-containing protein 3 (Homo sapiens) (UniProt Q15059); details: Compound concentration 10.0 uM, Protein concentration 2.0 uM
Bromodomain-containing protein 3 (Homo sapiens), sequence (Q15059 2-726 limits assumed): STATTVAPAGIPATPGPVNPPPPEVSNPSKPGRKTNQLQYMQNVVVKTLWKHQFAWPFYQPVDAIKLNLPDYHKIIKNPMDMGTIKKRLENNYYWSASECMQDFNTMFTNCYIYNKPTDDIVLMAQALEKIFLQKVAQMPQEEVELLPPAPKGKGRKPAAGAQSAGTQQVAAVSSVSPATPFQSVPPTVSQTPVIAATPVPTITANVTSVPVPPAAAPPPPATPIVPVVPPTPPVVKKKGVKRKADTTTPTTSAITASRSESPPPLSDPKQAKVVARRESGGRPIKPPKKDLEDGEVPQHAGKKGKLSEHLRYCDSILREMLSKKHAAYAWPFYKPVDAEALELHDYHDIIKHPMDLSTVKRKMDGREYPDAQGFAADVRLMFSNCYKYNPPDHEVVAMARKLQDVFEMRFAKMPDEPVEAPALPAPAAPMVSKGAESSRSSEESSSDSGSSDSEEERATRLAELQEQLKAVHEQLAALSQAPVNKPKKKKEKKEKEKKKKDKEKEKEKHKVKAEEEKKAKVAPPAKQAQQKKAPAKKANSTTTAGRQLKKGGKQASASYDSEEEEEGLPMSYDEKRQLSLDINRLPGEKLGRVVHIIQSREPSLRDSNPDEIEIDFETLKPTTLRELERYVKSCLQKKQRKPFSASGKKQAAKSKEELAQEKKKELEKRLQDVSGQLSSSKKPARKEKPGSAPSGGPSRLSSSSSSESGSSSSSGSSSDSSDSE

[36] = target: T2, Chromatin remodeling regulator CECR2; assay: Alphascreen assay. Binding to CECR2A (domain start/stop: P420-D543) by alphascreen assay
Target sequence in this assay (Q9BXF3 whole entry): as the sequence (Q9BXF3 whole entry) above

[37] = target: T2, Chromatin remodeling regulator CECR2; details: Compound concentration 10.0 uM, Protein concentration 2.0 uM
[38] = target: Protein polybromo-1 (Homo sapiens) (UniProt Q86U86); details: Compound concentration 10.0 uM, Protein concentration 2.0 uM; remark: listed apart in the source
[39] = target: Bromodomain-containing protein 3 (Homo sapiens) (UniProt Q15059); details: Compound concentration 10.0 uM, Protein concentration 2.0 uM; remark: listed apart in the source
[40] = target: Nuclear body protein SP140-like protein (Homo sapiens) (UniProt Q9H930); details: Compound concentration 10.0 uM, Protein concentration 2.0 uM
[41] = target: Bromodomain-containing protein 9 (Homo sapiens) (UniProt Q9H8M2); details: Compound concentration 10.0 uM, Protein concentration 2.0 uM
[42] = target: Bromodomain and WD repeat-containing protein 3 (Homo sapiens) (UniProt Q6RI45); details: Compound concentration 10.0 uM, Protein concentration 2.0 uM
[43] = target: T1, Nucleosome-remodeling factor subunit BPTF; assay: Alphascreen assay. Binding to FALZA (domain start/stop: S2791-H2911) by alphascreen assay
[44] = target: Transcription initiation factor TFIID subunit 1-like (Homo sapiens) (UniProt Q8IZX4); details: Compound concentration 10.0 uM, Protein concentration 2.0 uM; remark: listed apart in the source
[45] = target: Transcription intermediary factor 1-beta (Homo sapiens) (UniProt Q13263); details: Compound concentration 10.0 uM, Protein concentration 2.0 uM
[46] = target: Bromodomain and WD repeat-containing protein 1 (Homo sapiens) (UniProt Q9NSI6); details: Compound concentration 10.0 uM, Protein concentration 2.0 uM
[47] = target: Tyrosine-protein kinase BAZ1B (Homo sapiens) (UniProt Q9UIG0); details: Compound concentration 10.0 uM, Protein concentration 2.0 uM
[48] = target: ATPase family AAA domain-containing protein 2 (Homo sapiens) (UniProt Q6PL18); details: Compound concentration 10.0 uM, Protein concentration 2.0 uM
[49] = target: Bromodomain-containing protein 4 (Homo sapiens) (UniProt O60885); details: Compound concentration 10.0 uM, Protein concentration 2.0 uM

## CCCS(=O)(=O)c1nc(NC2CC2)cc(-c2ccc3c(ccn3C3CC(C)(C)NC(C)(C)C3)c2)n1
[1]
  ΔTm: 0.4 °C
[2]
  ΔTm: 0.34 °C
[3]
  ΔTm: 0.14 °C
[4]
  ΔTm: -0.15 °C
[5]
  ΔTm: 1.25 °C
[6]
  ΔTm: 1.67 °C
[7]
  ΔTm: -0.17 °C
[8]
  ΔTm: 0.88 °C
[9]
  ΔTm: 0.08 °C
[10]
  IC50: 0.0193 µM
[11]
  ΔTm: 0.48 °C
[12]
  ΔTm: 0.51 °C
[13]
  ΔTm: 0.36 °C
[14]
  ΔTm: 0.34 °C
[15]
  ΔTm: 1.3 °C
[16]
  ΔTm: 1.38 °C
[17]
  ΔTm: 1.2 °C
[18]
  ΔTm: 0.39 °C
Peregrin (Homo sapiens) [19]
  ΔTm: 0.38 °C
Peregrin
  IC50: 4.4 µM
[20]
  ΔTm: 0.85 °C
[21]
  ΔTm: 0.48 °C
[22]
  ΔTm: 0.48 °C
[23]
  ΔTm: 0.82 °C
[24]
  ΔTm: 0.51 °C
[25]
  ΔTm: 0.54 °C
[26]
  ΔTm: 1.09 °C
[27]
  ΔTm: 0.73 °C
Peregrin (Homo sapiens) [28]
  ΔTm: 0.16 °C
[29]
  ΔTm: 0.87 °C
[30]
  ΔTm: 0.62 °C
[31]
  ΔTm: -0.21 °C
[32]
  ΔTm: 0.58 °C
[33]
  ΔTm: 1.26 °C
[34]
  ΔTm: -0.77 °C
[35]
  ΔTm: 0.37 °C
[36]
  IC50: 0.0375 µM
[37]
  ΔTm: 12.6 °C
[38]
  ΔTm: 0.63 °C
[39]
  ΔTm: 0.35 °C
[40]
  ΔTm: 0.62 °C
[41]
  ΔTm: 0.96 °C
[42]
  ΔTm: -0.86 °C
[43]
  IC50: 1.46 µM
[44]
  ΔTm: 1.56 °C
[45]
  ΔTm: 1.37 °C
[46]
  ΔTm: 1.71 °C
[47]
  ΔTm: -0.35 °C
[48]
  ΔTm: 1.07 °C
[49]
  ΔTm: 1.85 °C
